One experiment has as its target T1, hCOX-1 (Homo sapiens, UniProt P23219).
T1 construct: COX-1 from human platelet microsomes; from tissue; host or cells: human platelets (microsomes) from donor buffy coat
The experiment can be described thus: hCOX activity, TMPD oxidation with AA as substrate, COX-1 from human platelet microsomes. Conditions: means ± SEM from five experiments; *** = no active at 500 μM. The format is biochemical. As for the experimental part: Washed human platelets were prepared from blood anticoagulated with citrate-phosphate-dextrose, which was obtained from Centro de Transfusion de Galicia (Santiago de Compostela, Spain).
The upper layer containing platelets (platelet-rich plasma) was removed and centrifuged at 1000 g for 18 min. The resulting platelet pellet was recovered, resuspended with washing buffer, and centrifuged again at 1000 g for 15 min. Finally, the platelet pellet from this step was resuspended in a modified Tyrode-HEPES buffer (HEPES 10 mM; NaCl 140 mM; KCl 3 mM; MgCl2 0.5 mM; NaHCO3 5 mM; glucose 10 mM; pH 7.4) to afford a cell density of 3–3.5·10^8 platelet/mL. The calcium concentration in the extracellular medium was 2 mM [13].
(§1) The potential effects of the test drugs on total hCOX activity (bis-dioxygenase and peroxidase reactions) were investigated by measuring their effects on the oxidation of N,N,N′,N′-tetramethyl-p-phenylenediamine (TMPD) to […], using AA as common substrate for both hCOX-1 and hCOX-2, microsomal COX-2 prepared from insect cells (Sf21 cells) infected with recombinant baculovirus containing cDNA inserts for hCOX-2 (Sigma Aldrich Química S.A., Alcobendas, Spain), and COX-1 from human platelet microsomes (obtained as described in the above paragraph since, unlike hCOX-2, hCOX-1 is not available commercially).
(§2) Results shown in Table 3 are expressed as means ± SEM from five experiments. Means were compared by one-way analysis of variance (ANOVA) followed by Dunnett's post-hoc test.
(§3) This regression was performed using the data obtained with 4–6 different concentrations of each compound assayed, which inhibited the enzymatic activity of COX control isoform between 20 and 80%.

In a further experiment the target is T2, hCOX-2 (Homo sapiens, UniProt P35354).
T2 construct: purchased Sigma Aldrich Química S.A., Alcobendas, Spain; host or cells: Sf21 insect cells infected with recombinant baculovirus
T2 sequence (P35354 18-604): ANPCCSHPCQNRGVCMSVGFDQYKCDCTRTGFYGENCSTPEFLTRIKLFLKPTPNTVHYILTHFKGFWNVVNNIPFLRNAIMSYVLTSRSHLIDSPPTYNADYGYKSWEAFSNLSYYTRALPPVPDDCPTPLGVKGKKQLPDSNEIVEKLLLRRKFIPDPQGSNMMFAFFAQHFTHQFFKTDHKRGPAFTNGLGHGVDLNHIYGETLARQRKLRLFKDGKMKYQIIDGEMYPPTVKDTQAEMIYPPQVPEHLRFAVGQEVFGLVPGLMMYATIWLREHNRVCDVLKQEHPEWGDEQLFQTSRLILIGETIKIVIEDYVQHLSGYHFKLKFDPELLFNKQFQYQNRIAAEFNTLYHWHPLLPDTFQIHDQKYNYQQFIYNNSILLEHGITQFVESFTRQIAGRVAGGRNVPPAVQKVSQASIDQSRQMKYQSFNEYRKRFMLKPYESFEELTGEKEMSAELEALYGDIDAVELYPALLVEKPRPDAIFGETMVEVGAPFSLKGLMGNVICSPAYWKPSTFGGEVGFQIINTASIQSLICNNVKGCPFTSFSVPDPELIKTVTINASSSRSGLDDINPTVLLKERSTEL
The experiment can be described thus: hCOX activity, TMPD oxidation with AA as substrate, microsomal recombinant hCOX-2 from Sf21 insect cells. The following applies: for IC50: means ± SEM from five experiments, *** = no active at 500 μM, read-out: COX-2 (IC50); for Ratio, index of selectivity SI = [IC50(COX-2)]/[IC50(COX-1)]: COX-2 over COX-1, bounds use the highest concentration tested. Type of experiment: biochemical.
Text: as §1, §2, §3

A further experiment concerns COX-2. Set-up: method as in PMID 17640617. Conditions: ELISA test; cited from earlier work.

Residues, ends and D or L forms follow the SMILES beside them.

Data on twelve molecules can be found in paper PMC3600326, “Design, Synthesis, and Evaluation of New Tripeptides as COX-2 Inhibitors” (Journal of Amino Acids, 2013).

T1 sequence (P23219 24-599): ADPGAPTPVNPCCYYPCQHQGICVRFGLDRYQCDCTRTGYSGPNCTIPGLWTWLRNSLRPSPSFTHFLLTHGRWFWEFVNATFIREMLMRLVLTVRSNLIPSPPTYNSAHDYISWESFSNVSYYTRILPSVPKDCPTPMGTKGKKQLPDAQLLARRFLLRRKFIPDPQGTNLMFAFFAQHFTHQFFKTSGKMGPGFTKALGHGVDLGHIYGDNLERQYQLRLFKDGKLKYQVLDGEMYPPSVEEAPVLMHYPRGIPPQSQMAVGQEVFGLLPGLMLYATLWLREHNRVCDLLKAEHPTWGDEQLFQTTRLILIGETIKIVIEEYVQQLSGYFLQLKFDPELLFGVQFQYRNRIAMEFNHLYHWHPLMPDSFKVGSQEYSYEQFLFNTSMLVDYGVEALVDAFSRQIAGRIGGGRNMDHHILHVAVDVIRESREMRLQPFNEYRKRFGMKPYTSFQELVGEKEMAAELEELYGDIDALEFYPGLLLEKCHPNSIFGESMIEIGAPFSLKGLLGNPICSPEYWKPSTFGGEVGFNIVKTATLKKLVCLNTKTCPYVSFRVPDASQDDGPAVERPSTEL

`COc1ccc(-c2nc(C(=O)N3CCN(C)CC3)sc2-c2ccc(OC)cc2)cc1` [FR122047, reference compound]: the IC50 (commonly the concentration at which inhibition is half-maximal) was 93.8 ± 6.55 µM at hCOX-1 and over 500 µM at hCOX-2.
Turning to `CSCC[C@H](NC(=O)CN)C(=O)N[C@@H](CC(=O)O)C(=O)O` [Peptide S1, Gly-Met-Asp] (H-Gly-Met-Asp-OH), the IC50 at hCOX-1 turned out to be 150 ± 2.34 µM. Moreover, on hCOX-2, the “Ratio, index of selectivity SI = [IC50(COX-2)]/[IC50(COX-1)]” value (shortened to “Ratio, index of selectivity SI =”) is 0.6255 and the IC50 amounted to 94 ± 2.59 µM.
In the same order, the values of `C[C@H](NC(=O)[C@H](CCCNC(=N)N)NC(=O)[C@@H](N)CCC(=O)O)C(=O)O` [Peptide S2, ERA] (H-Glu-Arg-Ala-OH) are 143 ± 2.57 µM, 0.8443 and 121 ± 2.33 µM.
On the same counts, the results for `NCC(=O)N[C@@H](Cc1c[nH]cn1)C(=O)N[C@@H](CCC(=O)O)C(=O)O` [Peptide S3, Gly-His-Glu] (H-Gly-His-Glu-OH) are 152 ± 5.18 µM, 0.6225 and 94.9 ± 2.12 µM.
On the same counts, the results for `N=C(N)NCCC[C@H](NC(=O)[C@H](CCC(=O)O)NC(=O)CN)C(=O)O` [Peptide S4, GER] (H-Gly-Glu-Arg-OH) are 99.3 ± 1.14 µM, 0.8111 and 80.6 ± 2.14 µM.
Regarding `N=C(N)NCCC[C@H](NC(=O)[C@@H](N)CC(=O)O)C(=O)N[C@@H](CS)C(=O)O` [Peptide S5, DRC] (H-Asp-Arg-Cys-OH), the midpoint of inhibition against hCOX-1, the IC50, lay at 161 ± 2.57 µM. At hCOX-2, the “Ratio, index of selectivity SI =” value is given as 0.6195 and the IC50 stood at 100 ± 2.33 µM.
In the same order, the values of `C[C@H](N)C(=O)N[C@@H](CCCNC(=N)N)C(=O)N[C@@H](C)C(=O)O` [Peptide S6, ARA] (H-Ala-Arg-Ala-OH) are 102 ± 1.14 µM, 0.8914 and 91.2 ± 2.41 µM.
In the same order, the values of `N=C(N)NCCC[C@H](NC(=O)[C@H](CCC(=O)O)NC(=O)[C@@H]1CCCN1)C(=O)O` [Peptide S7, PER] (H-Pro-Glu-Arg-OH) are 100 ± 2.19 µM, 0.8792 and 88.2 ± 3.01 µM.
In the same order, the values of `CC[C@H](C)[C@H](NC(=O)[C@H](Cc1c[nH]cn1)NC(=O)[C@@H](N)CCCCN)C(=O)O` [Peptide S8, KHI] (H-Lys-His-Ile-OH) are 122 ± 3.78 µM, 0.7484 and 91.7 ± 2.98 µM.
In the case of `C[C@H](N)C(=O)N[C@@H](CCC(=O)O)C(=O)N[C@@H](CCCNC(=N)N)C(=O)O` [Peptide S9, AER] (H-Ala-Glu-Arg-OH), the concentration for half-maximal inhibition (IC50) amounted to 221.6 ± 1.04 µM on hCOX-1 and 68.3 ± 5.43 µM on hCOX-2.
As to `C[C@H](N)C(=O)NCC(=O)N[C@@H](CCCNC(=N)N)C(=O)O` [Peptide S10, AGR] (H-Ala-Gly-Arg-OH), the IC50 on hCOX-1 turned out to be 99.1 ± 1.55 µM. At hCOX-2, the “Ratio, index of selectivity SI =” value is 0.7991 and the IC50 turned out to be 79.2 ± 2.15 µM.
Consider WCS, for which the “inhibition of COX-2 activity” value with COX-2 is recorded as “more than 85%”.
